Values joined by “and” are separate entries in the source; they are usually repeats but may differ in a detail not shown here. Equal entries are not always repeated. Where two headings read alike, the source gives them in different places. Marks after values point to notes of the source that are not given here.
Tests used:
MCF-7 = assay: Multidrug resistant cell assay, cytotoxicity; format: cell-based; details: Homo sapiens, MCF7, 72 h, read-out: Various MDR Cell Line Cytotoxicity IC50
[1] = system: multiple cancer cell lines; assay: Pro-apoptotic activity in multiple cancer cell lines; format: cell-based
A549 cells = assay: Microtubule formation in A549 cells (FIG. 1); format: cell-based; details: 100 nM, 1 μM, 10 μM
Method: FIG. 1 depicts the extent of microtubule formation in A549 cells treated with (2-aminomethylquinazolin-4-yl)-(4-methoxyphenyl)methylamine (“Compound 1”). The cells in panel “a” were treated with 100 nM concentration of Compound 1. The cells in panel “b” were treated with 1 μM concentration of Compound 1. The cells in panel “c” were treated with 10 μM concentration of Compound 1.
FIG. 1 depicts the extent of microtubule formation in A549 cells treated with Compound 1. The cells in panel “a” were treated with 100 nM concentration of Compound 1. The cells in panel “b” were treated with 1 μM concentration of Compound 1. The cells in panel “c” were treated with 10 μM concentration of Compound 1.

P388/ADR (MDR-1) = assay: Multidrug resistant cell assay, cytotoxicity; format: cell-based; details: 72 hours, read-out: Various MDR Cell Line Cytotoxicity IC50
Method: P388/ADR cell lines were obtained from American Type Culture Collection (Manassas, Va.) and maintained in RPMI-1640 media supplemented with 10% FCS, 10 units/ml penicillin and streptomycin, 2 mM Glutamax and 1 mM sodium pyruvate (Invitrogen Corporation, Carlsbad, Calif.). […] Cells were allowed to adhere to the plate overnight and then incubated with the compound at final concentrations ranging from 0.13 nM to 10 uM for 72 hours. Cell viability was then assessed using the ATP-lite reagent (Perkin Elmer, Foster City, Calif.). Plates were read on a Wallac Topcount luminescence reader (Perkin Elmer, Foster City, Calif.) and the results graphed in Prism software (Graphpad Software, Inc., San Diego, Calif.). Non-linear regression with variable slope analysis was performed to obtain IC50 concentration values.

[2] = Pharmacokinetic study in a primate, plasma; format: in vivo, cynomolgus monkey; details: for Compound 1 Plasma Concentration: cynomolgus monkey, oral 20 mg/kg
Method: A single non-naïve male cynomolgus monkey was assigned to this study. […] Compound 1 was administered once orally via a gavage tube. The gavage tube was rinsed with water and removed. Blood was removed through the femoral artery/vein into a tube containing K3EDTA. The samples were centrifuged and the resulting plasma was separated and stored at approximately −70° C. until shipment to the analysis site. At the analysis site, the samples were stored at −20° C. until the day of analysis.
Plasma samples were analyzed for Compound 1 concentration using a LC-MS/MS method. The range of quantitation was 5-5000 ng/mL and utilized a 0.1 mL plasma sample volume. Concentration-time curves were constructed using WinNonlin (version 5.1.1).

HT-29 = assay: 72 hour cytotoxicity, ATP-Lite cell viability; format: cell-based; details: Homo sapiens, HT-29, Colorectal, read-out: 72 Hour Cytotoxicity (IC50, nM ± SD)
Method: (§1) A P388 murine leukemia cell line was obtained from NCI, Frederick, Md. P388 cells were cultured in RPMI-1640 supplemented with 10% fetal bovine serum, 2 mM Glutamax, 1 mM sodium pyruvate, 0.1 mM non-essential amino acids and 10 mM HEPES. Cells were grown at 37° C. in a humidified 5% CO2 atmosphere. Exponentially growing P388 cells were plated at 5,000 cells/well in a 96-well flat-bottomed microtiter plate (Corning, Costar #3595, Lowell, Mass.). Twenty-four hours later, test compound was added to cells at final concentrations of 100 nM, 33.3 nM, 11.1 nM, 3.7 nM, 1.23 nM, 0.4 nM and 0.13 nM. Cellular viability was determined 72 hours later by measuring intracellular ATP with ATP-Lite assay system. The effect of compounds on cell viability was calculated by comparing the ATP levels of cells exposed to test compound with those of cells exposed to DMSO. A semi-log plot of relative ATP levels versus compound concentration was used to calculate the compound concentration required to inhibit growth by 50% (IC50). Data was analyzed by Prism software (GraphPad; San Diego, Calif.) by fitting it to a sigmoidal dose response curve.
(§2) A similar procedure was followed with six other cell lines and the results are shown in Table 1: HT-29, HCT-116, A549, OVCAR-3, MIAPaCa-2, and B16F1.

B16F1 = assay: 72 hour cytotoxicity, ATP-Lite cell viability; format: cell-based; details: Mus musculus, B16-F1, B16F1, Melanoma, read-out: 72 Hour Cytotoxicity (IC50, nM ± SD)
Method: as §1, §2

MIAPaCa-2 = assay: 72 hour cytotoxicity, ATP-Lite cell viability; format: cell-based; details: Homo sapiens, MIA PaCa-2, MIAPaCa-2, Pancreatic, read-out: 72 Hour Cytotoxicity (IC50, nM ± SD)
Method: as §1, §2

OVCAR-3 = assay: 72 hour cytotoxicity, ATP-Lite cell viability; format: cell-based; details: Homo sapiens, OVCAR-3, Ovarian, read-out: 72 Hour Cytotoxicity (IC50, nM ± SD)
Method: as §1, §2

A549 = assay: 72 hour cytotoxicity, ATP-Lite cell viability; format: cell-based; details: Homo sapiens, A549, Lung, read-out: 72 Hour Cytotoxicity (IC50, nM ± SD)
Method: as §1, §2

HCT-116 = assay: 72 hour cytotoxicity, ATP-Lite cell viability; format: cell-based; details: Homo sapiens, HCT-116, Colorectal Carcinoma, read-out: 72 Hour Cytotoxicity (IC50, nM ± SD)
Method: as §1, §2

MCF-7/VP (MRP-1) = assay: Multidrug resistant cell assay, cytotoxicity; details: Homo sapiens, MCF7-VP, 72 h, read-out: Various MDR Cell Line Cytotoxicity IC50
[3] = Pharmacokinetic study in mice, brain; format: in vivo
Method: Animals were dosed with approximately 2.5 mg/kg i.v. in the tail vein or 5, 10, 30, or 60 mg/kg p.o. in fed and 60 mg/kg p.o. in a fasted state. Blood samples and whole brains were collected from five mice at each of the […] collection time points (approximately 0.05, 0.25, 1.0, 2.0, 4.0, 8.0, 12.0 and 24.0 hours) after administration of the dose. Plasma was collected from blood samples, and whole brain sample were homoginized. Both tissues were analyzed for the concentration of Compound 1. Pharmacokinetic parameters were estimated by non-compartmental analysis using WinNonlin.

NCI/ADR-Res (MDR-1) = assay: Multidrug resistant cell assay, cytotoxicity; details: 72 h, read-out: Various MDR Cell Line Cytotoxicity IC50
[4] = male cynomolgus monkey, fasted, single oral dose 20 mg/kg, plasma

COc1ccc(N(C)c2nc(CN)nc3ccccc23)cc1 [Compound 1]
IC50 (MCF-7): 27 nM
pro-apoptotic activity, potency ([1]; multiple cancer types including pancreatic, breast, colorectal, non-small cell lung, melanoma, ovarian cancers and leukemia): potency at low nanomolar concentrations
induction of apoptosis versus ABC transporter expression ([1]; regardless of expression levels of MDR-1 (Pgp-1), MRP-1, BCRP-1): equipotent for induction of apoptosis
microtubule formation (A549 cells): inhibits microtubule formation
IC50 (P388/ADR (MDR-1)): 27 nM
Compound 1 Plasma Concentration ([2]; Post Dose Sample Time 0): 3.08* ng/mL
Compound 1 Plasma Concentration ([2]; Post Dose Sample Time 0.25): 27.40 ng/mL
Compound 1 Plasma Concentration ([2]; Post Dose Sample Time 0.5): 64.15 ng/mL
Compound 1 Plasma Concentration ([2]; Post Dose Sample Time 1): 112.05 ng/mL
Compound 1 Plasma Concentration ([2]; Post Dose Sample Time 2): 166.01 ng/mL
Compound 1 Plasma Concentration ([2]; Post Dose Sample Time 6): 18.72 ng/mL
Compound 1 Plasma Concentration ([2]; Post Dose Sample Time 12): 3.91* ng/mL
oral bioavailability ([2]; male cynomolgus monkey dosed orally at 20 mg/kg): bioavailable
AUC(0-inf) [2, 4]: 536 ng·h/mL
CL/F [2, 4]: 622 mL/min/kg
Cmax [2, 4]: 166 ng/mL
Tlast [2, 4]: 12.0 h
Tmax [2, 4]: 2 h
half-life [2, 4]: 1.9 h
Vd/F ([2]; male cynomolgus monkey, fasted, single oral dose 20 mg/kg, plasma, read-out: Vz/F_obs): 102 L/kg
IC50 (HT-29): 29 ± 2 nM
IC50 (B16F1): 37 nM
IC50 (MIAPaCa-2): 56 nM
IC50 (OVCAR-3): 29 ± 20.1 nM
IC50 (A549): 54 nM
IC50 (HCT-116): 7.6 ± 1.9 nM
IC50 (MCF-7/VP (MRP-1)): 13 nM
Kp ([3]; Swiss Webster, mouse, brain, other: oral or intravenous, after oral or intravenous dosing, read-out: exposure in the brain relative to that in the plasma): ~7
Tmax ([3]; Swiss Webster, mouse, brain, mice, Not Fasted, PO, 60 mg/kg): 2 h
half-life ([3]; Swiss Webster, mouse, brain, mice, Not Fasted, PO, 60 mg/kg, read-out: Brain t½ (converted)): 9 h
Brain AUC(0-inf) ([3]; mice, Not Fasted, PO, 60 mg/kg): 77290 ng·h/mL
Brain CL ([3]; mice, Not Fasted, PO, 60 mg/kg): 12.9 mL/min/kg
Brain Cmax ([3]; mice, Not Fasted, PO, 60 mg/kg): 6030 ng/mL and 20.4 μM
Brain V ([3]; mice, Not Fasted, PO, 60 mg/kg): 10.109 L/kg
Kp ([3]; mouse, brain, po, Swiss Webster mice, single 60 mg/kg p.o. dose, read-out: Brain concentrations relative to plasma levels (AUC0-∞)): ~7
IC50 (NCI/ADR-Res (MDR-1)): 13 nM

Reference: US20110224240A1 (Myrexis, Inc., priority 2010, published 2011)
